Among the data in patent publication US12559481B2, “Quinoline derivatives” (ELANCO ANIMAL HEALTH GMBH, priority 2018, dated 2026) are inhibition and EC50 values, retold here.

Structures are written as SMILES.

For orientation: EC50 means the midpoint of the concentration-response curve.

Experiment [1] has as its system Adult Nippostrongylus brasiliensis. As to the kind of experiment: In vitro assay 3: Nippostrongylus brasiliensis (NIPOBR), acetylcholine esterase readout. The following applies: read-out: activity (reduction of AChE compared to negative control); for inhibition at 1 µg/mL: 1 μg/ml; for inhibition at 10 µg/mL: 10 μg/ml. How it is done:
In Vitro Assay 3: Nippostrongylus Brasiliensis (NIPOBR)
Adult Nippostrongylus brasiliensis were washed with saline buffer containing 100 U/ml penicillin, 0.1 mg/ml streptomycin and 2.5 μg/ml amphotericin B. Test compounds were dissolved in DMSO and worms were incubated in medium in a final concentration of 10 μg/ml (10 ppm) respectively 1 μg/ml (1 ppm). An aliquot of the medium was used to determine the acetylcholine esterase activity in comparison to a negative control. The principle of measuring acetylcholine esterase as readout for anthelmintic activity was described in Rapson et al (1986) and Rapson et al (1987).

Experiment [2] concerns Dirofilaria immitis microfilariae. Kind of experiment: In vitro assay 4: Dirofilaria immitis microfilariae (DIROIM L1) motility. The following applies: 72 h, read-out: EC50 (reduction of motility).
In experiment [3] the test system is Dirofilaria immitis third-stage larvae. Kind of experiment: In vitro assay 5: Dirofilaria immitis (DIROIM L4) larval motility. The following applies: 72 h, read-out: EC50 (reduction of motility).
The target in another experiment is C. elegans Slo-1a (Caenorhabditis elegans, UniProt Q95V25).
Sequence of C. elegans Slo-1a (Q95V25 whole entry): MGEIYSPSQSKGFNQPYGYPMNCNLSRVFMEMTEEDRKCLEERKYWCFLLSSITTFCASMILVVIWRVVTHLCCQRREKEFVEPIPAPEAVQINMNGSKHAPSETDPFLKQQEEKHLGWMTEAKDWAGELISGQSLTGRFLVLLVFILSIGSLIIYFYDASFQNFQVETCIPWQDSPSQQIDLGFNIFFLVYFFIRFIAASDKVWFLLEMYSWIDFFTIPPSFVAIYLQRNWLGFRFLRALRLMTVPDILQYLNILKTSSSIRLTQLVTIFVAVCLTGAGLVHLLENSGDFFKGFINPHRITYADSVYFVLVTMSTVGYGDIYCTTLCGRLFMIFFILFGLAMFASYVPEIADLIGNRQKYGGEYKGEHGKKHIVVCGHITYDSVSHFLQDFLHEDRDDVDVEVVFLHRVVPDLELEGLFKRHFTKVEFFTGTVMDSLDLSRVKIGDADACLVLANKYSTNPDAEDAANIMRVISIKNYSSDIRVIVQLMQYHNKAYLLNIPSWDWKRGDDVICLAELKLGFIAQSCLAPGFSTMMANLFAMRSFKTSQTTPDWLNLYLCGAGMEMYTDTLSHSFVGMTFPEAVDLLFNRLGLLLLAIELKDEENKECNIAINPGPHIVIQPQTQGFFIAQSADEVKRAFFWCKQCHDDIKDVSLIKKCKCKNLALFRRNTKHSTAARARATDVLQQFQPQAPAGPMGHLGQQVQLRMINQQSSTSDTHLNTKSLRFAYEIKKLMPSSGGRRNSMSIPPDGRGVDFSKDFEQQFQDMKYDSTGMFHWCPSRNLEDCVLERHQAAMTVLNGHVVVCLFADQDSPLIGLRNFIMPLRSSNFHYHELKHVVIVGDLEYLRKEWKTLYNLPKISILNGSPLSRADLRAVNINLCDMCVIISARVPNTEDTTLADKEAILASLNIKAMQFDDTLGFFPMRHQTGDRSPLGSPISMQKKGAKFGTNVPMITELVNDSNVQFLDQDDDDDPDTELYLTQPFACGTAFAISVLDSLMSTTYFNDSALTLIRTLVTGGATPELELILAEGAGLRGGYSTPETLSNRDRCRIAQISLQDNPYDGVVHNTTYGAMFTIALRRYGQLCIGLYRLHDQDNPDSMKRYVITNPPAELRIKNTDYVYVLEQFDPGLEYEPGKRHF
A further experiment addresses D. immitis Slo-1 (Dirofilaria immitis, UniProt I0DFK5). As to the kind of experiment: In vitro assay 2: D. immitis Slo-1, membrane potential in recombinant CHO cell line. Type of experiment: cell-based.

Sequence of D. immitis Slo-1 (I0DFK5 1-1119): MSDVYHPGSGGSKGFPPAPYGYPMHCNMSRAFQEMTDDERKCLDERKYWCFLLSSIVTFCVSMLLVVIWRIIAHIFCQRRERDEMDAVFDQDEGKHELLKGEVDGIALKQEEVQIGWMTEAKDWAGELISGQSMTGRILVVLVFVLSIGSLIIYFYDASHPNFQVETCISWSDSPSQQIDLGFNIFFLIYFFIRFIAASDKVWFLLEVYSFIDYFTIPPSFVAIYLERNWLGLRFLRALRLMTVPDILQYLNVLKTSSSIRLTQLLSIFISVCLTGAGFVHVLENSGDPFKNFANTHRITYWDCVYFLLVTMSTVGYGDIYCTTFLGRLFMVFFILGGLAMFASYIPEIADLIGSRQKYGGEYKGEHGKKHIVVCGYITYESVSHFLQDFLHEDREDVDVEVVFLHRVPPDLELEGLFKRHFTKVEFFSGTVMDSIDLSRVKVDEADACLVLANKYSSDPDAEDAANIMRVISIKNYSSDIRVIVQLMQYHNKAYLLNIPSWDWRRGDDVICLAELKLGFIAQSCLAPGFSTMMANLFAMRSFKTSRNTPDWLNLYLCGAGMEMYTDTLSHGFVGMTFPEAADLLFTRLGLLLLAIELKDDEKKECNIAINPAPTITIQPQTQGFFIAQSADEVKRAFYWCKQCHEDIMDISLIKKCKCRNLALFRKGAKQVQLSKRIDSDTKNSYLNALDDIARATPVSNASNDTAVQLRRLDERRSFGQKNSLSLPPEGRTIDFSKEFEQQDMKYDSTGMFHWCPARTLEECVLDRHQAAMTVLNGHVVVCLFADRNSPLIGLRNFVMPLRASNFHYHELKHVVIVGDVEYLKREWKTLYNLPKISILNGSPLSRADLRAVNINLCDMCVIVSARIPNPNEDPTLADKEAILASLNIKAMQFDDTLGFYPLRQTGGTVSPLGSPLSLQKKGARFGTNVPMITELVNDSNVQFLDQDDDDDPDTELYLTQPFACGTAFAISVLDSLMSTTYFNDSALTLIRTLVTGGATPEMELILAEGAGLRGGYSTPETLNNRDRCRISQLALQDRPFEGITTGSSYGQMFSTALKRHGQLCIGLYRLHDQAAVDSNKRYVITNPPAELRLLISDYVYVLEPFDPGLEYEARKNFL
Method for C. elegans Slo-1a: In Vitro Assay 1: C. elegans Slo-1a—Action at a Recombinant C. elegans Cell Line
Generation of a Stable C. elegans CHO Cell Line
For transfection with plasmid DNA to express C. elegans Slo-1a (accession number AAL28102) CHO cells were passaged to 40% confluence before adding the transfection solution to the cell culture. The transfection solution included 300 μL OptiMEM (Life Technologies, Nr.: 31985), 2 μL (=6 μg) of plasmid DNA containing the C. elegans Slo 1a gene and 9 μL FugeneHD (Promega, Nr.: E2311), and was added to the cells prior to incubation for 48 hours at 37° C., 5% CO2. The transfection medium was exchanged for the selection medium which contains additional G418 (2 mg/ml, Invitrogen, Nr.: 10131) and the cells were seeded into 384 well plates (300 cells/well). After a few weeks, the remaining surviving cells were tested with a voltage sensitive dye (Membrane Potential Assay Kit, Molecular Devices Nr.: R8034) for K+ channel expression. Positive cell clones were purified by the limited dilution technique. For this the clone with the highest and most robust signal in the voltage sensitive dye assay was further subcloned (incubated) in 384 well plates (0.7 cells/well) in order to obtain clonal purity. This generated a final stable CHO cell line expressing the C. elegans Slo-1a.
Cells were cultured at 37° C., and 5% CO2 in MEMalpha with Glutamax I (Invitrogen, Nr.: 32571), supplemented with 10% (v/v) heat inactivated fetal bovine serum (Invitrogen, Nr.: 10500), G418 (1 mg/ml. Invitrogen. Nr.: 10131). Cells were detached using Accutase (Sigma. Nr.: A6964).
Membrane Potential Measurements
Laboratory compound testing was performed on 384-well microtiter plates (MTPs, Greiner, Nr.: 781092), 8000 cells/well were plated onto 384-well MTPs and cultured for 20 to 24 hours at 37° C., and 5% CO2. After removal of the cell culture medium, the cells were washed once with tyrode (150 mM NaCl, 0.3 mM KCl, 2 mM CaCl2. 1 mM MgCl2. 0.8 mM NaH2PO4, 5 mM Glucose, 28 mM Hepes, pH 7.4) and then loaded with the voltage sensitive dye of the Membrane Potential Assay Kit diluted in tyrode for 1 h at room temperature.
After starting the measurement of fluorescence using a FLIPR Tetra (Molecular Devices, Exc. 510-545 nm, Emm. 565-625 nm), test compounds were added followed by the addition of KCl tyrode (final assay concentration: 70 mM KCl, 2 mM CaCl2, 1 mM MgCl2, 0.8 mM NaH2PO4, 5 mM Glucose, 28 mM Hepes, pH 7.4, including the voltage sensitive dye). The measurement was completed after 7 minutes.
The data were evaluated by using the ActivityBase XLfit software (IDBS) for curve fitting and calculation of the half-maximal effective concentration (EC50) and are reported as negative decadic logarithm (pE50).

With `O=C(N[C@H]1CCCc2ccccc21)c1cnc2c(-c3cc(F)cc(F)c3F)c(F)ccc2c1N1CC(F)C1` [Example 11], the inhibition at 1 µg/mL in experiment [1] is more than 80%. For the same compound, the inhibition at 10 µg/mL in experiment [1] was more than 80%. Moreover, the concentration giving a half-maximal response (EC50) was less than 0.1 µg/mL in experiment [2], less than 0.1 µg/mL in experiment [3] and less than 3.16 nM on C. elegans Slo-1a.

`O=C(N[C@H]1CCOc2ccccc21)c1cnc2c(-c3cc(F)cc(F)c3F)c(F)ccc2c1C1CCOCC1` [Example 3, N-[(4S)-3,4-Dihydro-2H-chromen-4-yl]-7-fluoro-4-(tetrahydro-2H-pyran-4-yl)-8-(2,3,5-trifluorophenyl)quinoline-3-carboxamide]: the EC50 was 3.16 to 31.6 nM at D. immitis Slo-1, less than 0.1 µg/mL in experiment [2] and less than 0.1 µg/mL in experiment [3]. Further, the inhibition at 1 µg/mL in experiment [1] was more than 80%. In experiment [1], the inhibition at 10 µg/mL was more than 80%.

Consider `O=C(N[C@H]1CCOc2ccccc21)c1cnc2c(-c3cc(F)cc(F)c3F)c(F)ccc2c1C1=CCOCC1` [Example 6, N-[(4S)-3,4-dihydro-2H-chromen-4-yl]-4-(3,6-dihydro-2H-pyran-4-yl)-7-fluoro-8-(2,3,5-trifluorophenyl)quinoline-3-carboxamide], for which the EC50 at D. immitis Slo-1 is 3.16 to 31.6 nM; in experiment [2] it was less than 0.1 µg/mL; in experiment [3], less than 0.1 µg/mL. Moreover, the inhibition at 1 µg/mL in experiment [1] was more than 80%. For the same compound, the inhibition at 10 µg/mL in experiment [1] is more than 80%.

Regarding `O=C(N[C@H]1CCc2ccccc21)c1cnc2c(-c3cc(F)cc(F)c3F)c(F)ccc2c1C1CCOCC1` [Example 16], the EC50 is 3.16 to 31.6 nM at D. immitis Slo-1, less than 0.1 µg/mL in experiment [2], less than 0.1 µg/mL in experiment [3] and less than 3.16 nM at C. elegans Slo-1a. For the same compound, the inhibition at 1 µg/mL in experiment [1] was more than 80%. Moreover, the inhibition at 10 µg/mL in experiment [1] was more than 80%.

In the case of `N#Cc1ccc2c(c1)[C@@H](NC(=O)c1cnc3c(-c4cc(F)cc(F)c4F)c(F)ccc3c1N1CC(F)C1)CCO2` [Example 14], the EC50 on D. immitis Slo-1 was 316 to 5010 nM; in experiment [2], less than 0.1 µg/mL; in experiment [3], less than 0.1 µg/mL; at C. elegans Slo-1a it was 31.6 to 316 nM. For the same compound, the inhibition at 10 µg/mL in experiment [1] is more than 80%.

Take `CCc1c(C(=O)N[C@H]2CCOc3ccccc32)cnc2c(-c3cc(F)cc(F)c3F)c(F)ccc12` [Example 4, N-[(4S)-3,4-Dihydro-2H-chromen-4-yl]-4-ethyl-7-fluoro-8-(2,3,5-trifluorophenyl)quinoline-3-carboxamide]: the concentration giving a half-maximal response (EC50) on D. immitis Slo-1 was 3.16 to 31.6 nM; in experiment [2], less than 0.1 µg/mL; in experiment [3], less than 0.1 µg/mL; on C. elegans Slo-1a, less than 3.16 nM. Further, the inhibition at 1 µg/mL in experiment [1] was more than 80%. Also, the inhibition at 10 µg/mL in experiment [1] is more than 80%.

Regarding `O=C(N[C@H]1CCc2ccccc21)c1cnc2c(-c3cc(F)cc(F)c3F)cccc2c1C1CCOCC1` [Example 19], the EC50 is 316 to 5010 nM at D. immitis Slo-1, less than 0.1 µg/mL in experiment [2], less than 0.1 µg/mL in experiment [3] and less than 3.16 nM on C. elegans Slo-1a. Besides, the inhibition at 1 µg/mL in experiment [1] was more than 80%. In addition, the inhibition at 10 µg/mL in experiment [1] is more than 80%.

With `O=C(N[C@H]1CCOc2ccc(F)cc21)c1cnc2c(-c3cc(F)cc(F)c3F)c(F)ccc2c1N1CC(F)C1` [Example 10], the EC50 at D. immitis Slo-1 was 31.6 to 316 nM; in experiment [2], less than 0.1 µg/mL; in experiment [3], less than 0.1 µg/mL; at C. elegans Slo-1a it was less than 3.16 nM. In experiment [1], the inhibition at 1 µg/mL is more than 80%. In addition, the inhibition at 10 µg/mL in experiment [1] was more than 80%.

Take `O=C(N[C@H]1CCc2ccccc21)c1cnc2c(-c3cc(F)cc(F)c3F)c(F)ccc2c1N1CC(F)C1` [Example 12]: the EC50 at D. immitis Slo-1 is 31.6 to 316 nM; in experiment [2], less than 0.1 µg/mL; in experiment [3] it was less than 0.1 µg/mL; on C. elegans Slo-1a it was less than 3.16 nM. Besides, the inhibition at 1 µg/mL in experiment [1] was more than 80%. For the same compound, the inhibition at 10 µg/mL in experiment [1] is more than 80%.

Turning to `CCc1c(C(=O)N[C@H]2CCOc3ccccc32)cnc2c(-c3cc(F)cc(F)c3F)c(Cl)ccc12` [Example 21], the inhibition at 1 µg/mL in experiment [1] was more than 80%. In experiment [1], the inhibition at 10 µg/mL was more than 80%. In addition, the EC50 in experiment [2] is less than 0.1 µg/mL; in experiment [3], less than 0.1 µg/mL; on C. elegans Slo-1a, less than 3.16 nM.

Regarding `O=C(NC1CCSc2ccc(F)cc21)c1cnc2c(-c3cc(F)cc(F)c3F)c(F)ccc2c1N1CC(F)C1` (centres unmarked) [Example 8], the EC50 on D. immitis Slo-1 was 316 to 5010 nM; in experiment [2] it was less than 0.1 µg/mL; in experiment [3], less than 0.1 µg/mL. In experiment [1], the inhibition at 10 µg/mL is more than 80%.

Take `O=C(N[C@H]1CCCc2ccccc21)c1cnc2c(-c3cc(F)cc(F)c3F)cccc2c1C1CCOCC1` [Example 20]: the EC50 is 31.6 to 316 nM at D. immitis Slo-1, less than 0.1 µg/mL in experiment [2] and less than 0.1 µg/mL in experiment [3]. In addition, the inhibition at 1 µg/mL in experiment [1] is more than 80%. The inhibition at 10 µg/mL in experiment [1] was more than 80%.

Take `Cc1ccc2c(c1)[C@@H](NC(=O)c1cnc3c(-c4cc(F)cc(F)c4F)c(F)ccc3c1N1CC(F)C1)CCO2` [Example 9]: the EC50 was 316 to 5010 nM at D. immitis Slo-1, less than 0.1 µg/mL in experiment [2] and less than 0.1 µg/mL in experiment [3]. Also, the inhibition at 1 µg/mL in experiment [1] is more than 80%. Further, the inhibition at 10 µg/mL in experiment [1] is more than 80%.

As to `CC1(C)C[C@H](NC(=O)c2cnc3c(-c4cc(F)cc(F)c4F)c(F)ccc3c2N2CC(F)C2)c2ccccc2O1` [Example 13], the EC50 on D. immitis Slo-1 is 316 to 5010 nM; in experiment [2] it was less than 0.1 µg/mL; in experiment [3] it was less than 0.1 µg/mL; at C. elegans Slo-1a, 3.16 to 31.6 nM. Further, the inhibition at 10 µg/mL in experiment [1] is more than 80%.

Turning to `CCc1c(C(=O)N[C@H]2CCc3ccccc32)cnc2c(-c3cc(F)cc(F)c3F)c(Cl)ccc12` [Example 22], the values for the EC50 (at D. immitis Slo-1; in experiment [2]; in experiment [3]) were 3.16 to 31.6 nM, less than 0.1 µg/mL and less than 0.1 µg/mL, respectively. The inhibition at 1 µg/mL in experiment [1] was more than 80%. Moreover, the inhibition at 10 µg/mL in experiment [1] is more than 80%.

As to `O=C(N[C@H]1CCOc2ccccc21)c1cnc2c(-c3cc(F)cc(F)c3F)cccc2c1N1CC(F)C1` [Example 15], the EC50 was 31.6 to 316 nM at D. immitis Slo-1, less than 0.1 µg/mL in experiment [2], less than 0.1 µg/mL in experiment [3] and less than 3.16 nM on C. elegans Slo-1a. Further, in experiment [1], the inhibition at 1 µg/mL is more than 80%. Moreover, the inhibition at 10 µg/mL in experiment [1] is more than 80%.

For the compound `CC(C)Oc1ccc2c(C3CCOCC3)c(C(=O)N[C@H]3CCOc4ccccc43)cnc2c1-c1cc(F)cc(F)c1F` [Example 18], the figures for the EC50 (at D. immitis Slo-1; in experiment [2]; in experiment [3]) were 316 to 5010 nM, less than 0.1 µg/mL and less than 0.1 µg/mL, respectively. In experiment [1], the inhibition at 1 µg/mL was more than 80%. In addition, the inhibition at 10 µg/mL in experiment [1] is more than 80%.

For the compound `O=C(NC1COc2ccccc21)c1cnc2c(-c3cc(F)cc(F)c3F)cccc2c1C1CCOCC1` (racemic) [Example 17], the EC50 was 316 to 5010 nM at D. immitis Slo-1, less than 0.1 µg/mL in experiment [2] and less than 0.1 µg/mL in experiment [3]. The inhibition at 1 µg/mL in experiment [1] is more than 80%. In addition, the inhibition at 10 µg/mL in experiment [1] was more than 80%.

For `COc1ccc2c(C3CCOCC3)c(C(=O)N[C@H]3CCOc4ccccc43)cnc2c1-c1cc(F)cc(F)c1F` [Example 7, N-[(4S)-3,4-dihydro-2H-chromen-4-yl]-7-methoxy-4-(tetrahydro-2H-pyran-4-yl)-8-(2,3,5-trifluorophenyl)quinoline-3-carboxamide], the EC50 was 3.16 to 31.6 nM on D. immitis Slo-1, less than 0.1 µg/mL in experiment [2], less than 0.1 µg/mL in experiment [3] and less than 3.16 nM at C. elegans Slo-1a. In addition, in experiment [1], the inhibition at 1 µg/mL is more than 80%. For the same compound, the inhibition at 10 µg/mL in experiment [1] is more than 80%.
